Data reported in patent US12281122B1, “PI3K inhibitors” (Cogent Biosciences, Inc., priority 2023, dated 2025).

How the values were obtained:
[1] = test system: T47D (PI3Kα-H1047R) cell line; assay: HTRF phospho-AKT(S473) cell assay in T47D cells; type: cell-based, human
How it was run: (§1)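 HTRF read-out of phospho-AKT(S473) in lysates gave IC50 values after 2 h compound exposure at 37° C. Dose series was 12 points at 1:3, topping at 5 μM for T47D and 10 μM for SKBR3. Only SKBR3 received 70 ng/ml PDGF-BB during the last 15 minutes.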

[2] = test system: SKBR3 (PI3Kα-Wild Type) cell line; assay: HTRF phospho-AKT(S473) cell assay in SKBR3 cells; type: cell-based, human
How it was run: as §1

[3] = Homo sapiens; T47D (PI3Kα-H1047R) cells, HTRF phospho-AKT(S473), 2 hours compound incubation
[4] = Homo sapiens, SK-BR-3; SKBR3 (PI3Kα-Wild Type) cells, HTRF phospho-AKT(S473), 2 hours compound incubation, PDGF-BB stimulated
[5] = Homo sapiens; HTRF phospho-AKT(S473), T47D (PI3Kα-H1047R) cells, 2 hours compound incubation
[6] = Homo sapiens, SK-BR-3; HTRF phospho-AKT(S473), SKBR3 (PI3Kα-Wild Type) cells, 2 hours compound incubation, PDGF-BB stimulated

SMILES | IC50 [1, 3] | IC50 [2, 4] | IC50 [1, 5] | IC50 [2, 6]
C[C@@H](Nc1ccc(Cl)nc1C(=O)NS(C)(=O)=O)c1cc(F)cc2c(=O)n(C)c(N3CCC(c4ccn(C)n4)CC3)nc12 [Compound 366, (R)-6-chloro-3-((1-(6-fluoro-3-methyl-2-(4-(1-methyl-1H-pyrazol-3-yl)piperidin-1-yl)-4-oxo-3,4-dihydroquinazolin-8-yl)ethyl)amino)-N-(methylsulfonyl) picolinamide] | < 0.25 µM | 1 to 5 µM |  | 
Cc1cc([C@@H](C)Nc2ccc(Cl)nc2C(=O)NS(C)(=O)=O)c2nc(N3CCc4nn(C(F)F)cc4C3)n(C)c(=O)c2c1 [Compound 627, (R)-6-chloro-3-((1-(2-(2-(difluoromethyl)-2,4,6,7-tetrahydro-5H-pyrazolo[4,3-c]pyridin-5-yl)-3,6-dimethyl-4-oxo-3,4-dihydroquinazolin-8-yl)ethyl)amino)-N-(methylsulfonyl) picolinamide] |  |  | < 0.25 µM | 1 to 5 µM
CCn1c(N2CCc3nn(C)cc3C2)nc2c([C@@H](C)Nc3ccc(Cl)nc3C(=O)NS(C)(=O)=O)cc(C)cc2c1=O [Compound 546, (R)-6-chloro-3-((1-(3-ethyl-6-methyl-2-(2-methyl-2,4,6,7-tetrahydro-5H-pyrazolo[4,3-c]pyridin-5-yl)-4-oxo-3,4-dihydroquinazolin-8-yl)ethyl)amino)-N-(methylsulfonyl) picolinamide] |  |  | < 0.25 µM | 1 to 5 µM
Cc1cc([C@@H](C)Nc2ccc(Cl)nc2C(=O)NS(C)(=O)=O)c2nc(N3C[C@@H]4[C@H](C3)[C@H]4c3c(F)cnn3C)n(C)c(=O)c2c1 [Compound 424, 6-chloro-3-(((R)-1-(2-((1R,5S,6R)-6-(4-fluoro-1-methyl-1H-pyrazol-5-yl)-3-azabicyclo[3.1.0]hexan-3-yl)-3,6-dimethyl-4-oxo-3,4-dihydroquinazolin-8-yl)ethyl)amino)-N-(methylsulfonyl) picolinamide] | 0.25 to 0.5 µM | ≥ 5 µM |  | 

Results, then the compound that gave them:

IC50 [1, 3] | IC50 [2, 4] | IC50 [1, 5] | IC50 [2, 6] | SMILES
 |  | < 0.25 µM | 1 to 5 µM | Cc1cc([C@@H](C)Nc2ccc(Cl)nc2C(=O)NS(C)(=O)=O)c2nc(N3CC[C@@H](c4ccc(C)nc4)C3)n(C)c(=O)c2c1 (relative stereo) [Compound 659, 6-chloro-3-(((R)-1-(3,6-dimethyl-2-((R*)-3-(6-methylpyridin-3-yl)pyrrolidin-1-yl)-4-oxo-3,4-dihydroquinazolin-8-yl)ethyl)amino)-N-(methylsulfonyl) picolinamide]
 |  | < 0.25 µM | 1 to 5 µM | Cc1cc([C@@H](C)Nc2ccc(Cl)nc2C(=O)NS(C)(=O)=O)c2nc(-c3cc(F)c4cn(C)nc4c3)n(C)c(=O)c2c1 [Compound 824, (R)-6-chloro-3-((1-(2-(4-fluoro-2-methyl-2H-indazol-6-yl)-3,6-dimethyl-4-oxo-3,4-dihydroquinazolin-8-yl)ethyl)amino)-N-(methylsulfonyl) picolinamide]
 |  | 0.25 to 0.5 µM | ≥ 5 µM | Cc1cc([C@@H](C)Nc2ccc(Cl)nc2C(=O)NS(C)(=O)=O)c2nc(N3CCC(c4cc5ccccn5n4)CC3)n(C)c(=O)c2c1 [Compound 692, (R)-6-chloro-3-((1-(3,6-dimethyl-4-oxo-2-(4-(pyrazolo[1,5-a]pyridin-2-yl)piperidin-1-yl)-3,4-dihydroquinazolin-8-yl)ethyl)amino)-N-(methylsulfonyl) picolinamide]
< 0.25 µM | ≥ 5 µM |  |  | Cc1cc([C@@H](C)Nc2ccc(Cl)nc2C(=O)NS(C)(=O)=O)c2nc(-c3ccc(N4CC5CCC(C4)C5O)nc3)n(C)c(=O)c2c1 (stereo partly drawn) [Compound 305, 6-chloro-3-(((1R)-1-(2-(6-(8-hydroxy-3-azabicyclo[3.2.1]octan-3-yl)pyridin-3-yl)-3,6-dimethyl-4-oxo-3,4-dihydroquinazolin-8-yl)ethyl)amino)-N-(methylsulfonyl) picolinamide]
